Laboratory results from ChEMBL document CHEMBL1124051 (J Med Chem, 1988).

How the values were obtained:
[1] = Partition coefficient (logP); type: physicochemical; settings: octanol/water
[2] = molecular target: Mu-type opioid receptor (Rattus norvegicus) (UniProt P33535); settings: Brain; Membrane
[3] = molecular target: Mu-type opioid receptor (Rattus norvegicus) (UniProt P33535); settings: Brain; Membrane; remark: listed apart in the source

Mu-type opioid receptor (Rattus norvegicus), sequence (P33535 whole entry): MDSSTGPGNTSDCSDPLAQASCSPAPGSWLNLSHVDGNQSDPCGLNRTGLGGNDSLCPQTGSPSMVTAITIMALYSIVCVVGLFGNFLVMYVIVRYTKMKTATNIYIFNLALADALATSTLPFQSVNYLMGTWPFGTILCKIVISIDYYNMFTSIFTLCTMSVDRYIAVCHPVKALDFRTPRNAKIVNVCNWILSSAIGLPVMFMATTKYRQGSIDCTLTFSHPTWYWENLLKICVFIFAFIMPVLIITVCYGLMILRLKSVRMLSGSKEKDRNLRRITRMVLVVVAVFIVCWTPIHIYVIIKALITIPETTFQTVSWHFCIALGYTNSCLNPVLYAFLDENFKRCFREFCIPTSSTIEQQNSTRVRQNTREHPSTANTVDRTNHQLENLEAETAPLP

Structure (SMILES)	logP ([1]; read-out: logP)	other results
CN1CCC23c4c5cccc4OC2C(=O)CCC3C1C5 (configuration not stated)	0.4	–
CC1C2Cc3ccc(O)cc3C1(C)CCN2Cc1ccco1 (stereo in doubt; form 1)	–	logP [1]: 2.49
C=CCN1CCC23c4c5cccc4OC2C(O)CCC3C1C5 (configuration not stated)	0.87	–
C=CCN1CCC2(C)c3cc(O)ccc3CC1C2C (stereo in doubt; form 2)	1.73	–
CN1CCC23c4c5ccc(O)c4OC2C(O)CCC3C1C5 (configuration not stated)	-0.51	–
CN1CCC23c4c5cccc4OC2C(O)C=CC3C1C5 (configuration not stated)	0.3	–
CN1CC[C@]23CCCC[C@H]2[C@H]1Cc1ccc(O)cc13 [LEVORPHANOL]	1.03	KT [2]: 20.8; Kp [3]: 15.6
CC1C2Cc3ccc(O)cc3C1(C)CCN2Cc1ccco1 (stereo in doubt; form 2)	2.68	–
C=CCN1CCC2(C)c3cc(O)ccc3CC1C2C (stereo in doubt; form 1)	–	logP [1]: 1.58
C[C@H]1[C@@H]2Cc3ccc(O)cc3[C@]1(C)CCN2C [METAZOCINE]	0.47	–
C=CCN1CCC23CCCCC2C1Cc1ccc(O)cc13 (configuration not stated)	2.14	KT [2]: 21.6; Kp [3]: 20.8
CN1CC[C@]23c4c5ccc(O)c4O[C@H]2[C@@H](O)C=C[C@H]3[C@H]1C5	–	KT [2]: 18.8; Kp [3]: 12.6
CC1C2Cc3ccc(O)cc3C1(C)CCN2Cc1ccoc1 (stereo in doubt; form 1)	2.25	–
CC1C2Cc3ccc(O)cc3C1(C)CCN2Cc1ccoc1 (stereo in doubt; form 2)	–	logP [1]: 2
C=CCN1CCC23c4c5ccc(O)c4OC2C(O)C=CC3C1C5 (configuration not stated)	1.22	–
CN1CCC23c4c5ccc(O)c4OC2C(=O)CCC3(O)C1C5 (configuration not stated)	-0.42	–
COc1ccc2c3c1O[C@H]1[C@@H](O)C=C[C@H]4[C@@H](C2)N(C)CC[C@@]341 [CODEINE]	0.25	KT [2]: 13.3; Kp [3]: 11.4
CN1CCC23c4c5cccc4OC2C(=O)CCC3(O)C1C5 (configuration not stated)	-0.23	–
C[C@H]1[C@H]2Cc3ccc(O)cc3[C@]1(C)CCN2CC1CC1 [CYCLAZOCINE]	–	logP [1]: 0.97
CN1CCC23c4c5cccc4OC2CCCC3C1C5 (configuration not stated)	1.35	–
